This note sets out measurements from patent US12331029B2, “Orexin 1 receptor antagonists” (NXERA PHARMA UK LIMITED, priority 2018, dated 2025).

Test [1] addresses T1, Human OX1 receptor (Homo sapiens, UniProt O43613).
T1 sequence (O43613 1-425): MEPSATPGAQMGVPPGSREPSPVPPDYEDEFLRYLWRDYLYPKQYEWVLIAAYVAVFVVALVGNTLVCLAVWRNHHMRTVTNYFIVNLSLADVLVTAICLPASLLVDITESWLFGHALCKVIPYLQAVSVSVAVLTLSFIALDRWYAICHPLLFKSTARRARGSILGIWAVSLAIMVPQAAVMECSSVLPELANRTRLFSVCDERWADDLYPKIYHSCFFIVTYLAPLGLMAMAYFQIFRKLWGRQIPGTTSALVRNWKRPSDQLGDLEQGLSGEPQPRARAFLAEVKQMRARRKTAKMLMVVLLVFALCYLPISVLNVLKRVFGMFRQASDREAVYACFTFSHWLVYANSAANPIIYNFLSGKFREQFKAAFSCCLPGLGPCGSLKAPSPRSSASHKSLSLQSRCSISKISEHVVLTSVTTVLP
The test is described as follows: IPone accumulation assay, CHO cells expressing human OX1 receptor. Format: cell-based. The settings on record: antagonism of orexin A (EC80) induced inositol phosphate turnover, read-out: fpKb average OX1 (converted). Here is the method:
(§1) Stable cell lines for the human OX1R and OX2R receptors were generated through the transfection of CHO cells using the transfection reagent Genejuice (Novagen number 70967) and cDNA coding for either the human OX1R or OX2R. Cells were cultured in Sigma Nutrient Mixture F-12 Ham media (catalog number N6658) supplemented with 10% heat-inactivated FBS. Forty-eight hours after transfection, cells were harvested and placed under geneticin selection by culturing in Sigma Nutrient Mixture F-12 Ham media supplemented with 10% heat-inactivated FBS and geneticin (ThermoFisher Catalog number: 10131035). Selection of the final stable clone for each receptor was made on the basis of receptor expression, assay signal to noise and robustness though increasing passage. Selected clones for the human OX1R and OX2R were then frozen down into liquid nitrogen using Cell Freezing Medium-DMSO (Sigma-Aldrich catalog number: C6164).
(§2) IPone accumulation assay. A CHO cell line stably expressing either human OX1 or OX2 receptor was used with the IPone HTRF assay kit (CisBio: Part #62IPAPEJ) to measure receptor activation. The assay was optimised to measure the ability (potency; fpKb) of antagonists to reduce agonist (orexin A)-induced inositol phosphate turnover. Briefly, cells were plated onto half area 96-well white walled plates at a density of 12,500 cells/well. Sixteen hours post-plating cell growth media was replaced with antagonist concentration-response curve diluted in stimulation buffer (supplied with the kit). Cells were incubated in a humidified incubator (37° C.) for 30 min before an EC80 challenge concentration (˜20 nM (OX1) and 40 nM (OX2)) of orexin A (Tocris catalogue number 1455). After 30 min stimulation in a humidified incubator (37° C.) the assay was terminated by the addition of detection mixture as per manufacturer's instructions. The concentration of compound which reduced orexin-A stimulated turnover of inositol phosphates by 50% (IC50) was calculated by fitting to a four parameter sigmoidal dose response curve. The IC50 values were converted to fpKB values using the orexin A pEC50 value estimated on each plate as well as the challenge concentration interpolated from the orexin A control curve.

For test [2], the target named is T2, Human OX2 receptor (Homo sapiens, UniProt O43614).
T2 sequence (O43614 1-444): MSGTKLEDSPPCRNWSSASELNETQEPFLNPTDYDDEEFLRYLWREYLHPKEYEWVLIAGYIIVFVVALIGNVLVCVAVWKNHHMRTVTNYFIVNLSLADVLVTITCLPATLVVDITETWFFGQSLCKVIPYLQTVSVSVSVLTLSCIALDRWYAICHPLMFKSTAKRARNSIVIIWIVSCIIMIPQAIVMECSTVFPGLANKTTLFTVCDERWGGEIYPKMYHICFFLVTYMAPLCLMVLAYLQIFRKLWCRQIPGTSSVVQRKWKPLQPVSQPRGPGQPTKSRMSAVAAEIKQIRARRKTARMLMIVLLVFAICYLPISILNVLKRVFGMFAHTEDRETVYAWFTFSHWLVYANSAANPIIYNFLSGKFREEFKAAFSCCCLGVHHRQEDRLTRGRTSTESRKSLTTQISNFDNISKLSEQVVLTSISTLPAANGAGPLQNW
Kind of test: IPone accumulation assay, CHO cells expressing human OX2 receptor. Format: cell-based. The settings on record: antagonism of orexin A (EC80) induced inositol phosphate turnover, read-out: fpKb average OX2. As to the method:
as §1
as §2, with “Cells were incubated in a humidified incubator (37° C.) for 30 min before an EC80 challenge concentration (˜20 nM (OX1) and 40 nM (OX2)) of orexin A (Tocris catalogue number 1455).” left out

Test [3] concerns the target T1, Human OX1 receptor. The test is described as follows: [3H]-radioligand binding assay, human OX1 receptor membranes.
Description: (§3) Human OX1 or OX2 receptor were cloned into Invitrogen's (ThermoFisher Scientific, UK) Bac-to-Bac Baculovirus Expression System. P0 baculovirus was generated by transfecting SF9 cells with bacmid DNA using Cellfectin® II transfection reagent (ThermoFisher Scientific, UK, Catalog number 10362-100). Following P0 generation P1 virus was then generated ready for large scale infection and membrane preparation. SF21 cells were grown in expression medium ESF921 (Expression Systems, USA, catalog number 96-001-01) supplemented with 10% heat-inactivated FBS and 1% Pen/Strep and were infected at a cell density of 2.5×10^6 cells/mL and a multiplicity of infection of 1.0 for both human OX1R and OX2R. Incubation was carried out at over 48 h in a shaking incubator set at 27° C. The cell culture was then centrifuged at 2,500 rcf for 10 min at 4° C. The pellets were resuspended in cold PBS supplemented with Roche's Complete EDTA-free protease inhibitor cocktail tablets (Roche Applied Sciences, catalog number 05056489001), 1 mM PMSF and 1 mM EDTA. The resuspended cell paste was then centrifuged at 3,273 rcf for 12 min at 4° C. The supernatant was discarded and the pellet frozen at −80° C. The cell pellet from a 4 L culture was resuspended in buffer containing 50 mM HEPES pH 7.5, 150 mM NaCl, 8 Roche EDTA-Free protease inhibitor cocktail tablets and 1 mM PMSF. The suspension was left stirring at rt for 1 h and then homogenised for 90 s at 9,500 rpm using a VDI 25 (VWR, USA) homogeniser. The cells were then lysed using a Microfluidiser processor M-110L Pneumatic (Microfluidics, USA) at 60 PSI and membranes collected by ultracentrifugation at 204.7 k×g for 1 h. The supernatant was discarded and the pellet was resuspended and homogenised in 90 s at 9,500 rpm in 50 mL (25 mL for each 2 L culture) of buffer containing 50 mM Hepes pH 7.5, 150 mM NaCl, 3 Roche EDTA-free protease inhibitor cocktail tablets and 1 mM PMSF. The resulting membranes were then stored at −80° C.
(§4) [^3H]-radioligand binding assay. After thawing, membrane homogenates were re-suspended in the binding buffer (8.5 mM HEPES, pH 7.4, 1.3 mM CaCl2, 1.2 mM MgSO4, 118 mM NaCl, 4.7 mM KCl, 4 mM NaHCO3, 1.2 mM KH2PO4, 11 mM glucose) to a final assay concentration of 6.4 μg (OX1) or 1.4 μg (OX2) protein per well. Saturation isotherms were determined by the addition of various concentrations (0-30 nM) of [^3H]-4-(2,6-difluoro-4-methoxybenzyl)-2-(5,6-dimethoxypyridin-3-yl)-2H-1,2,4-benzothiadiazin-3(4H)-one 1,1-dioxide (Christopher et al, MedChemComm., 2015, 6, 947-955) in a total reaction volume of 250 μL for 90 min at rt. At the end of the incubation, membranes were filtered onto a 96-well GF/B filter pre-incubated with 0.5% polyethylenimine, with a Tomtec cell harvester and washed 5 times with 0.5 mL distilled water. Non-specific binding (NSB) was measured in the presence of 3.33 μM [4-(5-chloro-1,3-benzoxazol-2-yl)-7-methyl-1,4-diazepan-1-yl][5-methyl-2-(2H-1,2,3-triazol-2-yl)phenyl]methanone (Wertz et al, Angew. Chem. Int. Ed., 2011, 50, 11511-11515). Radioactivity on the filter was counted (1 min) on a Microbeta radiometric plate counter (Perkin Elmer) after addition of 50 μL of scintillation fluid (LabLogic: Part #SG-BXX-14). […] IC50 values were derived from the inhibition curve and the equilibrium dissociation constant (Ki) values were calculated using the Cheng-Prusoff equation.
The target in test [4] is T2, Human OX2 receptor. The test is described as follows: [3H]-radioligand binding assay, human OX2 receptor membranes.
Description: as §3, §4

pKd, pKi: −log10 of the molar value.

One may read the pKi as −log10 of the Ki, conventionally taken in molar units. Consider `O=C(N[C@H]1CCC[C@@H]1COc1ccc(F)cc1)c1c(F)cccc1-c1ncccn1` [Example 10, 2-fluoro-N-[(1S,2S)-2-[(4-fluorophenoxy)methyl]cyclopentyl]-6-pyrimidin-2-yl-benzamide], for which the values for the Kb at Human OX1 receptor [1] and on Human OX2 receptor [2] were 20 nM and greater than 631 nM, respectively. Further, the negative-log Ki (pKi) at Human OX1 receptor [3] is 8.20; on Human OX2 receptor [4], 5.80.

Take `O=C(N[C@H]1CCC[C@@H]1COc1ccc(F)c(F)c1)c1ncccc1-c1ncccn1` [Example 28, N-[(1S,2S)-2-[(3,4-difluorophenoxy)methyl]cyclopentyl]-3-pyrimidin-2-yl-pyridine-2-carboxamide]: the Kb on Human OX1 receptor [1] was 100 nM; at Human OX2 receptor [2], greater than 2510 nM. The pKi is 7.60 on Human OX1 receptor [3] and less than 5.90 at Human OX2 receptor [4].

As to `O=C(N[C@H]1CCC[C@@H]1COc1ccc(F)cc1)c1c(OC(F)F)cccc1-n1nccn1` [Example 8, 2-(difluoromethoxy)-N-[(1S,2S)-2-[(4-fluorophenoxy)methyl]cyclopentyl]-6-(triazol-2-yl)benzamide], the Kb is 79.4 nM at Human OX1 receptor [1] and greater than 398 nM at Human OX2 receptor [2]. Further, the pKi at Human OX1 receptor [3] is 8.20; on Human OX2 receptor [4], 6.20.

As for `COc1cccc(-n2nccn2)c1C(=O)N[C@H]1CCC[C@@H]1COc1ccc(F)cn1` [Example 31, N-[(1S,2S)-2-[(5-fluoro-2-pyridyl)oxymethyl]cyclopentyl]-2-methoxy-6-(triazol-2-yl)benzamide], the Kb at Human OX1 receptor [1] was 10 nM. The pKi on Human OX1 receptor [3] is 8.20.

`O=C(N[C@H]1CCC[C@@H]1COc1ccc(F)cc1)c1c(F)cccc1-n1nccn1` [Example 4, 2-fluoro-N-[(1S,2S)-2-[(4-fluorophenoxy)methyl]cyclopentyl]-6-(triazol-2-yl)benzamide]: the Kb was 63.1 nM at Human OX1 receptor [1] and greater than 2000 nM at Human OX2 receptor [2]. In addition, the values for the negative-log Ki (pKi) at Human OX1 receptor [3] and on Human OX2 receptor [4] were 8.40 and less than 5.50, respectively.

As for `Cc1ccc(-n2nccn2)c(C(=O)N[C@H]2CCC[C@@H]2COc2ccc(F)cc2)c1` [Example 3, N-[(1S,2S)-2-[(4-fluorophenoxy)methyl]cyclopentyl]-5-methyl-2-(triazol-2-yl)benzamide], the pKi at Human OX1 receptor [3] is 7.80; at Human OX2 receptor [4] it was less than 5.90.

Take `COc1cccc(-c2ncccn2)c1C(=O)N[C@H]1CCC[C@@H]1COc1ccc(F)cc1` [Example 9, N-[(1S,2S)-2-[(4-fluorophenoxy)methyl]cyclopentyl]-2-methoxy-6-pyrimidin-2-yl-benzamide]: the Kb at Human OX1 receptor [1] is 10 nM. Besides, the pKi on Human OX1 receptor [3] is 8.40.

With `COCc1cccc(-n2nccn2)c1C(=O)N[C@H]1CCC[C@@H]1COc1ccc(F)cc1` [Example 17, N-[(1S,2S)-2-[(4-fluorophenoxy)methyl]cyclopentyl]-2-(methoxymethyl)-6-(triazol-2-yl)benzamide], the figures for the Kb at Human OX1 receptor [1] and on Human OX2 receptor [2] were 251 nM and greater than 631 nM, respectively. The negative logarithm of the Ki (pKi) on Human OX1 receptor [3] was 7.50; at Human OX2 receptor [4], less than 5.90.

`COCc1ccc(-n2nccn2)c(C(=O)N[C@H]2CCC[C@@H]2COc2ccc(Cl)cc2)n1` [Example 19, N-[(1S,2S)-2-[(4-chlorophenoxy)methyl]cyclopentyl]-6-(methoxymethyl)-3-(triazol-2-yl)pyridine-2-carboxamide]: the values for the Kb at Human OX1 receptor [1] and on Human OX2 receptor [2] were 79.4 nM and greater than 1260 nM, respectively. In addition, the pKi is 8.10 on Human OX1 receptor [3] and less than 5.30 on Human OX2 receptor [4].

For the compound `COc1ccc(-n2nccn2)c(C(=O)N[C@H]2CCC[C@@H]2COc2ccc(F)cc2)n1` [Example 20, N-[(1S,2S)-2-[(4-fluorophenoxy)methyl]cyclopentyl]-6-methoxy-3-(triazol-2-yl)pyridine-2-carboxamide], the values for the Kb on Human OX1 receptor [1] and at Human OX2 receptor [2] were 100 nM and greater than 1260 nM, respectively. Moreover, the pKi on Human OX1 receptor [3] is 8.10; on Human OX2 receptor [4] it was less than 5.30.

On to `Cc1ccc(-c2ncccn2)c(C(=O)N[C@H]2CCC[C@@H]2COc2ccc(F)cc2)n1` [Example 24, N-[(1S,2S)-2-[(4-fluorophenoxy)methyl]cyclopentyl]-6-methyl-3-pyrimidin-2-yl-pyridine-2-carboxamide], for which the Kb at Human OX1 receptor [1] was 15.8 nM; at Human OX2 receptor [2], greater than 631 nM. Further, the pKi at Human OX1 receptor [3] was 7.80; on Human OX2 receptor [4] it was less than 5.40.

On to `Cc1ccc(-c2ncccn2)c(C(=O)N[C@H]2CCC[C@@H]2COc2ccc(F)cc2)c1` [Example 2, N-[(1S,2S)-2-[(4-fluorophenoxy)methyl]cyclopentyl]-5-methyl-2-pyrimidin-2-yl-benzamide], for which the Kb is 63.1 nM on Human OX1 receptor [1] and greater than 1260 nM at Human OX2 receptor [2]. Also, the pKi on Human OX1 receptor [3] is 8.30; at Human OX2 receptor [4] it was less than 5.30.

Regarding `O=C(N[C@H]1CCC[C@@H]1COc1ccc(F)cc1)c1c(OC(F)F)cccc1-c1ncccn1` [Example 15, 2-(difluoromethoxy)-N-[(1S,2S)-2-[(4-fluorophenoxy)methyl]cyclopentyl]-6-pyrimidin-2-yl-benzamide], the Kb at Human OX1 receptor [1] is 158 nM; at Human OX2 receptor [2], greater than 2510 nM. Besides, the pKi was 7.90 at Human OX1 receptor [3] and less than 5.90 on Human OX2 receptor [4].

`Cc1ccc(-n2nccn2)c(C(=O)N[C@H]2CCC[C@@H]2COc2ccc(Cl)cc2)n1` [Example 23, N-[(1S,2S)-2-[(4-chlorophenoxy)methyl]cyclopentyl]-6-methyl-3-(triazol-2-yl)pyridine-2-carboxamide]: the Kb is 39.8 nM on Human OX1 receptor [1] and greater than 1260 nM at Human OX2 receptor [2]. The negative-log Ki (pKi) was 8.90 on Human OX1 receptor [3] and less than 5.40 on Human OX2 receptor [4].

Usually pKd stands for the negative decadic logarithm of the Kd, by convention in mol/L. In the case of `COc1cc(F)c(CN2C(=O)N(c3cnc(OC)c(OC)c3)S(=O)(=O)c3ccccc32)c(F)c1` [[^3H]-4-(2,6-difluoro-4-methoxybenzyl)-2-(5,6-dimethoxypyridin-3-yl)-2H-1,2,4-benzothiadiazin-3(4H)-one 1,1-dioxide, reference compound], the pKd is 8.82 on Human OX1 receptor [3] (read-out: KD value of the radioligand, OX1, saturation isotherms) and 9.12 on Human OX2 receptor [4] (read-out: KD value of the radioligand, OX2, saturation isotherms).

In the case of `[2H]C([2H])([2H])Oc1cccc(-n2nccn2)c1C(=O)N[C@H]1CCC[C@@H]1COc1ccc(F)cn1` [Example 33, N-[(1S,2S)-2-[(5-fluoro-2-pyridyl)oxymethyl]cyclopentyl]-2-(triazol-2-yl)-6-(trideuteriomethoxy)benzamide], the Kb at Human OX1 receptor [1] is 15.8 nM. Moreover, on Human OX1 receptor [3], the pKi was 8.40.

Take `COc1cccc(-c2cnccn2)c1C(=O)N[C@H]1CCC[C@@H]1COc1ccc(F)cc1` [Example 11, N-[(1S,2S)-2-[(4-fluorophenoxy)methyl]cyclopentyl]-2-methoxy-6-pyrazin-2-yl-benzamide]: the values for the Kb at Human OX1 receptor [1] and on Human OX2 receptor [2] were 20 nM and greater than 631 nM, respectively. This compound also showed a negative-log Ki (pKi) on Human OX1 receptor [3] of 8.10.
